Assays:
[1] = test system: human spermatozoa; assay: Superoxide assay, luminol-based Diogenes chemiluminescence, whole spermatozoa; type: cell-based
Excerpt: (§1) Human semen samples were obtained from patient donors as a part of their clinical evaluation for fertility and reproductive health status. Portions of the samples not required for clinical analyses were de-identified and made available for the research protocols described. Under these conditions, the Institutional Review Board determined that the study is exempt from requirements for protocol approval and informed consent. Semen was collected by masturbation into sterile plastic containers and allowed to liquefy for at least 30 min before being processed. The samples were centrifuged (500 g, 15 min) to separate the seminal plasma from spermatozoa, and the pellet washed twice in phosphate-buffered normal saline pH 7 with 10 mM glucose (PBS-G). The spermatozoa were then counted in a hemocytometer chamber, resuspended in PBS-G at 10^9/ml, and used for superoxide assays. Sperm samples containing leukocytes detected by microscopic examination were excluded from the study. For selected experiments, motile spermatozoa were collected using the swim-up procedure (Vijayakumar et al. (1986) Arch. Androl. 17, 223-230; Parrish and Foote (1987) J. Androl. 8, 259-266). Briefly, the spermatozoa were sedimented by centrifugation (500 g, 15 min) and the tube was then incubated upright for 60 min at 37° C. Motile spermatozoa that progressed from the pellet into the supernatant (swim-up fraction) were collected by aspiration and counted.
(§2) Superoxide generation was measured using a luminol-based chemiluminescence assay (Diogenes reagent, National Diagnostics, Atlanta, Ga.). […] Spermatozoa were suspended at 10^9/ml in PBS-G. A 100 μl aliquot of the Diogenes reagent was mixed with 2×10^7 spermatozoa and incubated at 37° C. for 2-4 minutes. Superoxide generation was measured at baseline and after stimulation with ionomycin (1 μM), phorbol myristate acetate (PMA, 1 μg/ml), or H2O2 (100 μM and other concentrations as indicated). Chemiluminescence was measured every 30-60 sec for up to 10-15 min using a Clarity™ BioTek luminometer and an integration time of 5 sec.
Spermatozoa were pre-incubated for 5 min prior to the superoxide assay with 400 U/ml superoxide dismutase (SOD), 10 μM diphenylene iodonium (DPI), or 100 μM 1,2-Bis (2-aminophenoxy) ethane-N,N,N′,N′-tetraacetic acid (BAPTA). […] In some experiments, cells were pre-exposed to the NOX inhibitor 2-(2-chlorophenyl)-4-methyl-5-(pyridin-2-ylmethyl)-1H-pyrazolo[4,3-c]pyridine-3,6(2H,5H)-dione (GKT136901, 0.5 μM and other concentrations as indicated) for 10 min before exposure to either H2O2 or PMA.

[2] = test system: human spermatozoa; assay: Swim-up procedure, sperm motility; type: cell-based; settings: 100 μM H2O2, 10 min
Excerpt: as §1

[3] = test system: c-Abl; assay: Phospho-c-Abl immunoblot and immunostaining of spermatozoa; type: cell-based, human; settings: 100 μM H2O2, 10 min
Description: Spermatozoa resuspended in lysis buffer A (20 mM HEPES, pH 7.9; 350 mM NaCl; 0.5 mM EDTA; 0.5 mM EGTA; 1 mM MgCl2; 10% glycerol (v/v); 1% Nonidet P-40 (v/v); 10 mM NaF; 0.1 mM Na3VO4 [orthovanadate], 8 mM β-glycerophosphate; phosphatase inhibitor cocktail I and II [Sigma]; and protease inhibitor cocktail [Roche, Mannheim, Germany]) were sonicated 3 times for 5 sec each (20 watts). Lysates were cleared by centrifugation (10,000 g, 15 min). Aliquots containing 60-200 μg of protein were separated on 4-20% SDS polyacrylamide gradient gels and transferred to polyvinylidene difluoride (PVDF) membranes. […]
For immunohistological analyses, a drop of spermatozoa suspended in PBS-G was placed on a poly-L-lysine-coated glass slide, fixed in 4% (w/v) paraformaldehyde and permeabilized with 0.1% Triton X-100 (v/v) for 15 min at 4° C. […] Protein expression was visualized on a fluorescence microscope (Zeiss, Thornwood, N.Y.). […]

[4] = test system: human spermatozoa; assay: Live cell confocal imaging with fluo4-AM and DHE; type: cell-based; settings: H2O2, 10 min
Description: Spermatozoa suspended in PBS-G were plated on poly-L-lysine-coated glass coverslips (2×10^5 cells/ml) in PBS-G and loaded with 6 μM fluo4-AM and 300 nM dihydroethidine (DHE) (Molecular Probes, Carlsbad, Calif.) 10 min before imaging. Ca2+ influx and superoxide production were recorded using a confocal microscope (LSM 510; Carl Zeiss MicroImaging, Inc., Thornwood, N.Y.) with a 63×/1.4 NA plan-apochromat objective. Fluo-4 and DHE fluorescence emissions were excited with dual laser at 488/543 nm attenuated to avoid photobleaching and saturation. Detection was through a 545 nm long-pass dichroic mirror and a band-pass filter at 500-530 for fluo-4 and LP560 for DHE.

[5] = test system: K562/NOX5 cells; assay: Superoxide production by K562/NOX5 cells; type: cell-based, human; settings: 1 mM ZnCl2, K562/NOX5 cells
Description: as §2
Human leukemia cells stably transfected with an empty vector (K562 cells) or a vector encoding for NOX5 (K562/NOX5) were grown in RPMI medium supplemented with 10% (v/v) fetal bovine serum, plus 100 U/ml penicillin and 100 μg/ml streptomycin and the appropriate selection antibiotic. Cells in the logarithmic phase of growth were transfected with a mix of HV1 siRNA (Sigma) or with scrambled siRNA (Sigma) using the Neon system (Invitrogen, Carlsbad, Calif.) according to the manufacturer's recommendations. […]

Row | Compound | dose dependence of induction of superoxide generation ([1]; 1 to 500 μM H2O2) | H2O2-stimulated superoxide production by hypermotile spermatozoa of the upper fraction after spontaneous swim-up ([1]; compared with pre-swim-up cells) | onset of superoxide burst after peroxide addition ([1]; human spermatozoa) | time to maximal superoxide activity levels ([1]; human spermatozoa, varying among donors) | induction of superoxide production by spermatozoa ([1]; ionomycin 1 μM, PMA 1 μg/ml or H2O2 100 μM, 10 min) | effect on number of sperm in the swim-up fraction [2] | phosphorylation of c-Abl [3] | cytosolic Ca2+ levels and superoxide fluorescence [4] | sensitivity of superoxide production induced by H2O2, PMA, or ionomycin ([1]; 1 mM ZnCl2, 5 min pre-incubation, human spermatozoa) | decrease of superoxide production stimulated by ionomycin, PMA, or H2O2 [5]
1 | OO [H2O2] | dose-dependent | did not produce superoxide | 1 to 2 min | 5 to 10 min | induced a marked burst in superoxide production | increase in the number of sperm in the swim-up fraction | induced the phosphorylation of c-Abl on tyrosine 245 | increases in cytosolic Ca2+ levels | – | –
2 | [Cl-].[Cl-].[Zn+2] [ZnCl2] | – | – | – | – | – | – | – | – | Zn2+-sensitive | 50-70%

Source: patent US10564168B2, “Method for treating male infertility based on NOX5 protein levels in sperm” (priority 2013, dated 2020)
